The results in this text go back to US5021431A, “Imidazolyl alkyl guanidine derivatives, processes for their preparation and pharmaceutical preparations containing these compounds” (Heumann Pharma GmbH & Co., priority 1985, dated 1991).

Each structure is given as a SMILES string. Counter-ions that a name gives are not always drawn. Like-named read-outs stand apart in the source and are kept apart here.

The target of one experiment is T1, histamine-H2 receptors (Cavia porcellus, UniProt P47747).
T1 construct: determined on the isolated atrium or ileum of the guinea-pig; from tissue; host or cells: isolated right atrium of the guinea-pig
In words: cell-based. Further details: species or system guinea-pig. An excerpt:
For determining the H2 -agonistic activity (pD2 -values), use is made of the method according to J. M. VAN ROSSUM, (1963), Cumulative dose-response curves, II, Technique for the making of dose-response curves in isolated organs and the evaluation of drug parameters, Arch. Int. Pharmacodyn. Ther. 143, 299-307.
(§1) Pharmacological Data (determined on the isolated atrium or ileum of the guinea-pig)
(§2) The values listed below represent the H2 -agonistic (pD2) and H1 -antagonistic (pA2) effect of the dual active compounds

The target of the next experiment is H1 receptor (Cavia porcellus, UniProt P31389). As to the kind of experiment: cell-based. Conditions: isolated ileum of the guinea pig; for Kb: read-out: pA2 ileum (H1-antagonistic effect) (converted).
Text: The new class of structures according to the invention has both an H1 -antagonistic and an H2 -agonistic active component. […] One recognized method for determining H1 -antagonistic activity is the determination of the pA2 -values in vitro (O. ARUNLAKSHANA and H. O. SCHILD (1959) Some quantitative uses of drug antagonists--Br. J. Pharmacol. Chemother. 14, 48-58).
as §1, §2

The mark [1] stands for this setting: isolated right atrium of the guinea pig, read-out: pD2 right atrium (H2-agonistic effect) (converted).
Setting [2] is: isolated right atrium of the guinea pig.

H1 receptor, sequence (P31389 whole entry): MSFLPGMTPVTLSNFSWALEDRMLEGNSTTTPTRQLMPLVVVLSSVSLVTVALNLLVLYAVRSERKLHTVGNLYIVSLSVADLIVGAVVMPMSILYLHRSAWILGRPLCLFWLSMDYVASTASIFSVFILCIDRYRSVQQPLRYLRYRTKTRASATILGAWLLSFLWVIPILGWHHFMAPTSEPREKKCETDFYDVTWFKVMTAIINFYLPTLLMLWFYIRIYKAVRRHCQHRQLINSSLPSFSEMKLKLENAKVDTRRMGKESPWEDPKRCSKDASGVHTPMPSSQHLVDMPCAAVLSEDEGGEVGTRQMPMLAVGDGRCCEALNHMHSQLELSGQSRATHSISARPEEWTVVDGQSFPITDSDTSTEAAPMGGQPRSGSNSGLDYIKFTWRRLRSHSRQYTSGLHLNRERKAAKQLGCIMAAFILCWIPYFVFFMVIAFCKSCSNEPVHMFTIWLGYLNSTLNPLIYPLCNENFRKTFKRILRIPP
T1 sequence (P47747 whole entry): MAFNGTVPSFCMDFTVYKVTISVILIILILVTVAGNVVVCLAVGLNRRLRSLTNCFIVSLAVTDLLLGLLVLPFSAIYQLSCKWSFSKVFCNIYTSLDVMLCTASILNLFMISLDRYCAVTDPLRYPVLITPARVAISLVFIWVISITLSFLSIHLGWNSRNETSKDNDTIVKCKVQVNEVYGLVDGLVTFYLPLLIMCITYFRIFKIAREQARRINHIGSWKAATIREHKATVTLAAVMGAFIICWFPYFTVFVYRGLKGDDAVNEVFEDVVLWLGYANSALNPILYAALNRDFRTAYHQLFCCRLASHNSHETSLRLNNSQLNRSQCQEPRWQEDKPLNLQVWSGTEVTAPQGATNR

Turning to `Cc1ccc(N(C)CCCNC(=N)NCCCc2c[nH]cn2)nc1` [Example 10, N^1-[3-[N-(5-Methyl-pyridin-2-yl)-methylamino]propyl]-N^2-[3-(1H-imidazol-4-yl)propyl]guanidine trihydrochloride], on histamine-H2 receptors (setting [1]), the EC50 is 0.891 µM. Besides, the Kb at H1 receptor is 0.112 µM.

For `N=C(NCCCCc1cccnc1)NCCCc1c[nH]cn1` [Example 12, N^1-[4-(Pyridin-3-yl)butyl]-N^2-[3-(1H-imidazol-4-yl)propyl]guanidine trihydrochloride], the EC50 at histamine-H2 receptors (setting [1]) is 0.2 µM. Also, on H1 receptor, the Kb is 0.562 µM.

As to `Cc1cc(Br)cnc1CCCCNC(=N)NCCCc1c[nH]cn1` [Example 17, N^1-[4-(5-Bromo-3-methyl-pyridin-2-yl)butyl]-N^2 [3-(1H-imidazol-4-yl)propyl]-guanidine trihydrochloride], at histamine-H2 receptors (setting [1]), the EC50 is 1.2 µM. In addition, the Kb at H1 receptor was 0.00324 µM.

In the case of `Cc1[nH]c(CN(C)C)nc1CSCCNC(=N)NCCCc1c[nH]cn1` [Example 51, N-[2-[(2-Dimethylaminomethyl-5-methylimidazol-4-yl)methylthio]ethyl]-N'-[3-(imidazol-4-yl)propyl]-guanidine], at histamine-H2 receptors (setting [1]), the EC50 was 0.0676 µM. For the same molecule, the Kb on H1 receptor was 3.16 µM.

As to `CC(SCCNC(=N)NCCCc1c[nH]cn1)c1ccccc1` (stereo not drawn) [Example 60, N-[3-(Imidazol-4-yl)propyl]-N'-[2-[(1-phenylethyl)thio]ethyl]-guanidine], the EC50 at histamine-H2 receptors (setting [1]) is 0.288 µM. On H1 receptor, the Kb is 2.29 µM.

`Cc1ccc(C(SCCNC(=N)NCCCc2c[nH]cn2)c2ccccc2)cc1` (stereo not drawn) [Example 62, N-[3-(Imidazol-4-yl)propyl]-N'-[2-[(p-methyl-α-phenylbenzyl)thio]ethyl]-guanidine]: the EC50 on histamine-H2 receptors (setting [1]) is 3.89 µM. Also, the Kb at H1 receptor was 11.5 µM.

For the molecule `N=C(NCCCc1c[nH]cn1)NCCC(c1ccccc1)c1ccccc1` [Example 78, N-[3-(Imidazol-4-yl)propyl]-N'-(3.3-diphenylpropyl)-guanidine], the EC50 on histamine-H2 receptors (setting [1]) is 0.0676 µM. In addition, on H1 receptor, the “pA2 ileum (H1-antagonistic effect)” value is 7.20 and the Kb is 0.0631 µM.

Regarding `Cc1[nH]cnc1CCCNC(=N)NCCC(c1ccccc1)c1ccccc1` [Example 96, N-[3-(5-Methylimidazol-4-yl)propyl]-N'-(3,3-diphenylpropyl)-guanidine], the EC50 on histamine-H2 receptors (setting [1]) is 0.126 µM. In addition, at H1 receptor, the “pA2 ileum (H1-antagonistic effect)” value is given as 6.9 and the Kb was 0.126 µM.

Take `N=C(NCCCc1c[nH]cn1)NCCCC(c1ccccc1)c1ccccc1` [Example 97, N-[3-(Imidazol-4-yl)propyl]-N'(4,4-diphenylbutyl)-guanidine]: on histamine-H2 receptors (setting [1]), the EC50 was 0.2 µM. Also, on H1 receptor, the Kb is 0.158 µM.

Regarding `N=C(NCCCc1c[nH]cn1)NCCN(Cc1ccccc1)c1ccccc1` [Example 101, N^1-[3-(4-Imidazolyl)propyl]-N^2-[2-(N-benzyl-N-phenylamino)-ethyl]-guanidine trihydrochloride], at histamine-H2 receptors (setting [2]), the “pD2 right atrium (H2-agonistic effect)” value turned out to be 6.15. Further, the “pA2 ileum (H1-antagonistic effect)” value at H1 receptor came to 7.41.

Consider `N=C(NCCCc1c[nH]cn1)NCCN(Cc1ccccc1)c1ccc(F)cc1` [Example 102, N^1-[3-(4-Imidazolyl)propyl]-N^2-[2-(N-benzyl-N-(4-fluorophenyl)amino)ethyl]-guanidine trihydrochloride], for which the EC50 on histamine-H2 receptors (setting [1]) is 0.234 µM. The Kb at H1 receptor was 0.0251 µM.

As for `N=C(NCCCc1c[nH]cn1)NCCN(Cc1ccccc1)c1ccc(Cl)cc1` [Example 103, N^1-[3-(4-Imidazolyl)propyl]-N^2-[2-(N-benzyl-N-(4-chlorophenyl)amino)ethyl]-guanidine trihydrochloride], the EC50 at histamine-H2 receptors (setting [1]) is 2.69 µM. Further, on H1 receptor, the Kb is 0.0295 µM.

For `N=C(NCCCc1c[nH]cn1)NCCN(Cc1ccccc1)c1ccc(Br)cc1` [Example 104, N^1-[3-(4-Imidazolyl)propyl]-N^2-[2-(N-benzyl-N-(4-bromophenyl)amino)ethyl]-guanidine trihydrochloride], on histamine-H2 receptors (setting [1]), the EC50 is 6.92 µM. For the same molecule, at H1 receptor, the Kb was 0.0575 µM.

Consider `N=C(NCCCc1c[nH]cn1)NCCSCc1cccs1` [Example 105, N-[3-(Imidazol-4-yl)propyl]-N'-[2-(2-thenylthio)ethyl]-guanidine], for which the EC50 at histamine-H2 receptors is 0.0513 µM. Further, the Kb on H1 receptor was 1.23 µM.

Turning to `CC(CSCc1ccccn1)NC(=N)NCCCc1c[nH]cn1` (stereo not drawn) [Example 121, N-[3-(Imidazol-4-yl)propyl]-N'-[1-methyl-2-[(pyrid-2-yl)methylthio]-ethyl]-guanidine], on histamine-H2 receptors (setting [1]), the EC50 is 0.0513 µM. Besides, the Kb on H1 receptor is 2 µM.

With `N=C(NCCCc1c[nH]cn1)NCCSC(c1ccccc1)c1ccccn1` (stereo not drawn) [Example 123, N-[3-(Imidazol-4-yl)propyl]-N'-[2-[(phenyl(pyrid-2-yl)methyl)thio]ethyl]-guanidine], the EC50 on histamine-H2 receptors (setting [1]) is 0.224 µM. Moreover, the “pA2 ileum (H1-antagonistic effect)” value on H1 receptor was found to be 7.0.

Take `N=C(NCCCc1c[nH]cn1)NCCC(c1ccccc1)c1ccccn1` (stereo not drawn) [Example 127]: the “pD2 right atrium (H2-agonistic effect)” value at histamine-H2 receptors (setting [2]) is on record as 7.4. The EC50 at histamine-H2 receptors (setting [1]) was 0.0398 µM. At H1 receptor, the “pA2 ileum (H1-antagonistic effect)” value is 7.28 and the Kb is 0.0525 µM.

As to `N=C(NCCCc1c[nH]cn1)NCCC(c1ccc(Cl)cc1)c1ccccn1` (stereo not drawn) [Example 129, N-[3-(4-Chlorophenyl)-3-(pyrid-2-yl)propyl]-N'-[3-(imidazol-4-yl)propyl]-guanidine], the EC50 on histamine-H2 receptors (setting [1]) was 0.0631 µM. Further, the Kb at H1 receptor was 0.0316 µM.

With `N=C(NCCCc1c[nH]cn1)NCCC(c1ccc(Br)cc1)c1ccccn1` (stereo not drawn) [Example 131, N-[3-(4-Bromophenyl)-3-(pyrid-2-yl)propyl]-N'-[3-(imidazol-4-yl)propyl]-guanidine], the EC50 at histamine-H2 receptors (setting [1]) was 0.0832 µM. Moreover, the Kb at H1 receptor was 0.316 µM.

`NC(=NCCC(c1ccc(F)cc1)c1ccccn1)NCCCc1cnc[nH]1` (stereo not drawn) [Example 133, N-[3-(4-Fluorophenyl)-3-(pyrid-2-yl)propyl]-N'-[3-(imidazol-4-yl)propyl]-guanidine]: the EC50 on histamine-H2 receptors (setting [1]) is 0.0126 µM. In addition, at H1 receptor, the Kb is 0.0316 µM.

For the molecule `N=C(NCCCc1c[nH]cn1)NCCC(c1ccccn1)c1cccs1` (stereo not drawn) [Example 134, N-[3-(Imidazol-4-yl)propyl]-N'-[3-(pyrid-2-yl)-3-(2thienyl)propyl]-guanidine], the EC50 on histamine-H2 receptors (setting [1]) was 0.0933 µM. On H1 receptor, the Kb was 0.0501 µM.

Consider `N=C(NCCCc1c[nH]cn1)NCCCC(c1ccccc1)c1ccccn1` (stereo not drawn) [Example 136, N-[3-(Imidazol-4-yl)propyl]-N'-[4-phenyl-4-(pyrid-2-yl)butyl]-guanidine], for which, at histamine-H2 receptors (setting [1]), the EC50 is 0.112 µM. On H1 receptor, the “pA2 ileum (H1-antagonistic effect)” value is 6.6.

For the molecule `NC(=NCCN(Cc1ccccc1)c1ccccn1)NCCCc1c[nH]cn1` [Example 140, N^1-[3-(4-imidazolyl)propyl]-N^2-[2-(N-benzyl-N-(pyrid-2-yl)-amino)ethyl]-guanidine trihydrochloride], the EC50 at histamine-H2 receptors (setting [1]) is 1.26 µM. Also, the Kb at H1 receptor is 0.00891 µM.

Turning to `N=C(NCCCc1c[nH]cn1)NCCN(Cc1ccc(Cl)cc1)c1ccccn1` [Example 141, N^1-[3-(1H-Imidazol-4-yl)propyl]-N^2-[2-[N-(4-chlorobenzyl) N-(pyridin-2-yl).amino]ethyl]-guanidine], the EC50 at histamine-H2 receptors (setting [1]) was 1 µM. At H1 receptor, the Kb is 0.0123 µM.

On to `COc1ccc(CN(CCN=C(N)NCCCc2c[nH]cn2)c2ccccn2)cc1` [Example 142, N^1-[3-(1H-Imidazol-4-yl)propyl]-N2-[2-[N-(4-methoxybenzyl)-N-(pyridin-2-yl)-amino]ethyl]-guanidine], for which the EC50 on histamine-H2 receptors (setting [1]) was 1.58 µM. Moreover, on H1 receptor, the Kb is 0.00832 µM.

With `NC(=NCCN(Cc1ccc(F)cc1)c1ccccn1)NCCCc1c[nH]cn1` [Example 143, N^1-[3-(1H-Imidazol-4-yl)propyl]-N^2-[2-[N-(4-fluorobenzyl)-N-(pyridin-2-yl)-amino]ethyl]-guanidine], on histamine-H2 receptors (setting [1]), the EC50 was 1.95 µM. The Kb at H1 receptor was 0.00257 µM.

As to `Cc1cc(Br)cnc1N(CCNC(=N)NCCCc1c[nH]cn1)Cc1ccccc1` [Example 144, N^1-[2-[N-(5-Bromo-3-methyl-pyridin-2-yl)-benzylamino]ethyl]-N^2-[3-(1H-imidazol-4-yl)propyl]-guanidine trihydrochloride], the EC50 at histamine-H2 receptors (setting [1]) is 6.03 µM. In addition, the Kb on H1 receptor was 0.398 µM.

Consider `N=C(NCCCc1c[nH]cn1)NCCN(c1ccccc1)c1ccccc1` [Example 145, N^1-[3-(Imidazol-4-yl)propyl]-N^2-[2-(diphenylamino)ethyl]-guanidine trihydrochloride], for which the EC50 on histamine-H2 receptors (setting [1]) was 6.03 µM. Also, the Kb at H1 receptor was 0.398 µM.

Turning to `N=C(NCCCc1c[nH]cn1)NCCN(c1ccccc1)c1ccc(F)cc1` [Example 146, N^1-[3-(Imidazol-4-yl)propyl]-N^2-[2-N-(phenyl-N(4-fluorophenyl)amino)ethyl]-guanidine trihydrochloride], the EC50 at histamine-H2 receptors (setting [1]) is 1.1 µM. In addition, the Kb on H1 receptor was 1 µM.

As for `N=C(NCCCc1c[nH]cn1)NCCN(c1ccccc1)c1ccccn1` [Example 147, N^1-[3-(Imidazol-4-yl)propyl]-N^2-[2-(N-(2-pyridyl)-N-phenylamino)ethyl]-guanidine trihydrochloride], the EC50 at histamine-H2 receptors (setting [1]) was 0.1 µM. For the same molecule, the Kb on H1 receptor was 0.126 µM.

Regarding `N=C(NCCCc1c[nH]cn1)NCCN(c1ccc(F)cc1)c1ccccn1` [Example 148, N^1-[3-(Imidazol-4-yl)propyl]-N^2-[2-(N-(2-pyridyl)N-(4-fluorophenyl)amino)ethyl]-guanidine trihydrochloride], the EC50 on histamine-H2 receptors (setting [1]) is 0.316 µM. Besides, the Kb at H1 receptor was 0.0158 µM.
